{"source": "PubChem BioAssay AID1963961", "about": "(Molecular Pharmacology Branch, DTP, NCI, 2024)", "test_system": "K98450-129-R-PDC multicell spheroids, viability", "test": "Anticancer human tumor K98450-129-R-PDC patient-derived colon adenocarcinoma cell line growth inhibition [PI3K]", "details": "for viability, T/C: stronger effect = lower value", "how_it_was_run": "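Multi-cell spheroids combine tumor cells with HUVEC and human MSCs, treated with targeted agents alone or with inavolisib, alpelisib, duvelisib or copanlisib. Concentrations fall in half-log steps from at or near clinical Cmax, or from 10 microM where Cmax is unknown; viability read-out.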", "key": {"[1]": {"details": "curve of first compound, second compound 0.0316 µM"}, "[2]": {"details": "curve of first compound, second compound 0.1 µM"}, "[3]": {"details": "curve of first compound, second compound 0.316 µM"}, "[4]": {"details": "curve of first compound, second compound 1 µM"}, "[5]": {"details": "curve of first compound, second compound 3.16 µM"}, "[6]": {"details": "curve of first compound, second compound 10 µM"}, "[7]": {"details": "second compound 0.0316 µM, first compound 0.0316 µM"}, "[8]": {"details": "second compound 0.0316 µM, first compound 0.1 µM"}, "[9]": {"details": "second compound 0.0316 µM, first compound 0.316 µM"}, "[10]": {"details": "second compound 0.0316 µM, first compound 1 µM"}, "[11]": {"details": "second compound 0.0316 µM, first compound 3.16 µM"}, "[12]": {"details": "second compound 0.0316 µM, first compound 10 µM"}, "[13]": {"details": "second compound 0.1 µM, first compound 0.0316 µM"}, "[14]": {"details": "second compound 0.1 µM, first compound 0.1 µM"}, "[15]": {"details": "second compound 0.1 µM, first compound 0.316 µM"}, "[16]": {"details": "second compound 0.1 µM, first compound 1 µM"}, "[17]": {"details": "second compound 0.1 µM, first compound 3.16 µM"}, "[18]": {"details": "second compound 0.1 µM, first compound 10 µM"}, "[19]": {"details": "second compound 0.316 µM, first compound 0.0316 µM"}, "[20]": {"details": "second compound 0.316 µM, first compound 0.1 µM"}, "[21]": {"details": "second compound 0.316 µM, first compound 0.316 µM"}, "[22]": {"details": "second compound 0.316 µM, first compound 1 µM"}, "[23]": {"details": "second compound 0.316 µM, first compound 3.16 µM"}, "[24]": {"details": "second compound 0.316 µM, first compound 10 µM"}, "[25]": {"details": "second compound 1 µM, first compound 0.0316 µM"}, "[26]": {"details": "second compound 1 µM, first compound 0.1 µM"}, "[27]": {"details": "second compound 1 µM, first compound 0.316 µM"}, "[28]": {"details": "second compound 1 µM, first compound 1 µM"}, "[29]": {"details": "second compound 1 µM, first compound 3.16 µM"}, "[30]": {"details": "second compound 1 µM, first compound 10 µM"}, "[31]": {"details": "second compound 3.16 µM, first compound 0.0316 µM"}, "[32]": {"details": "second compound 3.16 µM, first compound 0.1 µM"}, "[33]": {"details": "second compound 3.16 µM, first compound 0.316 µM"}, "[34]": {"details": "second compound 3.16 µM, first compound 1 µM"}, "[35]": {"details": "second compound 3.16 µM, first compound 3.16 µM"}, "[36]": {"details": "second compound 3.16 µM, first compound 10 µM"}, "[37]": {"details": "second compound 10 µM, first compound 0.0316 µM"}, "[38]": {"details": "second compound 10 µM, first compound 0.1 µM"}, "[39]": {"details": "second compound 10 µM, first compound 0.316 µM"}, "[40]": {"details": "second compound 10 µM, first compound 1 µM"}, "[41]": {"details": "second compound 10 µM, first compound 3.16 µM"}, "[42]": {"details": "second compound 10 µM, first compound 10 µM"}}, "data": [{"molecule": "CC1(C)CCC(Nc2ncc(C(F)(F)F)c(-c3c[nH]c4c(P(C)(C)=O)c(C#N)ccc34)n2)CN1", "note": "(stereo unspecified) + CC(Nc1ncnc2nc[nH]c12)c1cc2cccc(Cl)c2c(=O)n1-c1ccccc1;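 further: spheroids exposed to agents for seven days before read-out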", "values": [{"measurement": "IC50", "setting": "[1]", "result": "> 10", "unit": "µM"}, {"measurement": "IC50", "setting": "[2]", "result": 7.06, "unit": "µM"}, {"measurement": "IC50", "setting": "[3]", "result": "> 10", "unit": "µM"}, {"measurement": "IC50", "setting": "[4]", "result": 4.51, "unit": "µM"}, {"measurement": "IC50", "setting": "[5]", "result": 5.35, "unit": "µM"}, {"measurement": "IC50", "setting": "[6]", "result": 2.33, "unit": "µM"}, {"measurement": "viability, T/C", "setting": "[7]", "result": 104, "unit": "%"}, {"measurement": "viability, T/C", "setting": "[8]", "result": 85.5, "unit": "%"}, {"measurement": "viability, T/C", "setting": "[9]", "result": 67.9, "unit": "%"}, {"measurement": "viability, T/C", "setting": "[10]", "result": 67.4, "unit": "%"}, {"measurement": "viability, T/C", "setting": "[11]", "result": 66.2, "unit": "%"}, {"measurement": "viability, T/C", "setting": "[12]", "result": 44.5, "unit": "%"}, {"measurement": "viability, T/C", "setting": "[13]", "result": 139, "unit": "%"}, {"measurement": "viability, T/C", "setting": "[14]", "result": 108, "unit": "%"}, {"measurement": "viability, T/C", "setting": "[15]", "result": 69.2, "unit": "%"}, {"measurement": "viability, T/C", "setting": "[16]", "result": 68.7, "unit": "%"}, {"measurement": "viability, T/C", "setting": "[17]", "result": 78.7, "unit": "%"}, {"measurement": "viability, T/C", "setting": "[18]", "result": 45.2, "unit": "%"}, {"measurement": "viability, T/C", "setting": "[19]", "result": 101, "unit": "%"}, {"measurement": "viability, T/C", "setting": "[20]", "result": 98.4, "unit": "%"}, {"measurement": "viability, T/C", "setting": "[21]", "result": 75.3, "unit": "%"}, {"measurement": "viability, T/C", "setting": "[22]", "result": 58.6, "unit": "%"}, {"measurement": "viability, T/C", "setting": "[23]", "result": 76.8, "unit": "%"}, {"measurement": "viability, T/C", "setting": "[24]", "result": 45, "unit": "%"}, {"measurement": "viability, T/C", "setting": "[25]", "result": 107, "unit": "%"}, {"measurement": "viability, T/C", "setting": "[26]", "result": 93.6, "unit": "%"}, {"measurement": "viability, T/C", "setting": "[27]", "result": 74.7, "unit": "%"}, {"measurement": "viability, T/C", "setting": "[28]", "result": 64.6, "unit": "%"}, {"measurement": "viability, T/C", "setting": "[29]", "result": 62.9, "unit": "%"}, {"measurement": "viability, T/C", "setting": "[30]", "result": 36.9, "unit": "%"}, {"measurement": "viability, T/C", "setting": "[31]", "result": 101, "unit": "%"}, {"measurement": "viability, T/C", "setting": "[32]", "result": 82.4, "unit": "%"}, {"measurement": "viability, T/C", "setting": "[33]", "result": 63.8, "unit": "%"}, {"measurement": "viability, T/C", "setting": "[34]", "result": 70.9, "unit": "%"}, {"measurement": "viability, T/C", "setting": "[35]", "result": 65.1, "unit": "%"}, {"measurement": "viability, T/C", "setting": "[36]", "result": 36.7, "unit": "%"}, {"measurement": "viability, T/C", "setting": "[37]", "result": 94.9, "unit": "%"}, {"measurement": "viability, T/C", "setting": "[38]", "result": 88.5, "unit": "%"}, {"measurement": "viability, T/C", "setting": "[39]", "result": 63.3, "unit": "%"}, {"measurement": "viability, T/C", "setting": "[40]", "result": 62, "unit": "%"}, {"measurement": "viability, T/C", "setting": "[41]", "result": 59.6, "unit": "%"}, {"measurement": "viability, T/C", "setting": "[42]", "result": 21.6, "unit": "%"}]}, {"molecule": "CC(C)NCC(C(=O)N1CCN(c2ncnc3c2C(C)CC3O)CC1)c1ccc(Cl)cc1", "note": "(stereo unspecified) + Cc1nc(NC(=O)N2CCCC2C(N)=O)sc1-c1ccnc(C(C)(C)C(F)(F)F)c1", "values": [{"measurement": "IC50", "setting": "[1]", "result": "> 10", "unit": "µM"}, {"measurement": "IC50", "setting": "[2]", "result": "> 10", "unit": "µM"}, {"measurement": "IC50", "setting": "[3]", "result": "> 10", "unit": "µM"}, {"measurement": "IC50", "setting": "[4]", "result": "> 10", "unit": "µM"}, {"measurement": "IC50", "setting": "[5]", "result": "> 10", "unit": "µM"}, {"measurement": "IC50", "setting": "[6]", "result": "> 10", "unit": "µM"}, {"measurement": "viability, T/C", "setting": "[7]", "result": 104, "unit": "%"}, {"measurement": "viability, T/C", "setting": "[8]", "result": 99.1, "unit": "%"}, {"measurement": "viability, T/C", "setting": "[9]", "result": 107, "unit": "%"}, {"measurement": "viability, T/C", "setting": "[10]", "result": 104, "unit": "%"}, {"measurement": "viability, T/C", "setting": "[11]", "result": 100, "unit": "%"}, {"measurement": "viability, T/C", "setting": "[12]", "result": 102, "unit": "%"}, {"measurement": "viability, T/C", "setting": "[13]", "result": 108, "unit": "%"}, {"measurement": "viability, T/C", "setting": "[14]", "result": 98.8, "unit": "%"}, {"measurement": "viability, T/C", "setting": "[15]", "result": 103, "unit": "%"}, {"measurement": "viability, T/C", "setting": "[16]", "result": 100, "unit": "%"}, {"measurement": "viability, T/C", "setting": "[17]", "result": 103, "unit": "%"}, {"measurement": "viability, T/C", "setting": "[18]", "result": 99.9, "unit": "%"}, {"measurement": "viability, T/C", "setting": "[19]", "result": 104, "unit": "%"}, {"measurement": "viability, T/C", "setting": "[20]", "result": 105, "unit": "%"}, {"measurement": "viability, T/C", "setting": "[21]", "result": 104, "unit": "%"}, {"measurement": "viability, T/C", "setting": "[22]", "result": 95.2, "unit": "%"}, {"measurement": "viability, T/C", "setting": "[23]", "result": 101, "unit": "%"}, {"measurement": "viability, T/C", "setting": "[24]", "result": 97, "unit": "%"}, {"measurement": "viability, T/C", "setting": "[25]", "result": 84.6, "unit": "%"}, {"measurement": "viability, T/C", "setting": "[26]", "result": 93.1, "unit": "%"}, {"measurement": "viability, T/C", "setting": "[27]", "result": 96.5, "unit": "%"}, {"measurement": "viability, T/C", "setting": "[28]", "result": 89.6, "unit": "%"}, {"measurement": "viability, T/C", "setting": "[29]", "result": 102, "unit": "%"}, {"measurement": "viability, T/C", "setting": "[30]", "result": 94.5, "unit": "%"}, {"measurement": "viability, T/C", "setting": "[31]", "result": 86.6, "unit": "%"}, {"measurement": "viability, T/C", "setting": "[32]", "result": 84.1, "unit": "%"}, {"measurement": "viability, T/C", "setting": "[33]", "result": 90.2, "unit": "%"}, {"measurement": "viability, T/C", "setting": "[34]", "result": 80.3, "unit": "%"}, {"measurement": "viability, T/C", "setting": "[35]", "result": 95.6, "unit": "%"}, {"measurement": "viability, T/C", "setting": "[36]", "result": 91.1, "unit": "%"}, {"measurement": "viability, T/C", "setting": "[37]", "result": 70.7, "unit": "%"}, {"measurement": "viability, T/C", "setting": "[38]", "result": 78, "unit": "%"}, {"measurement": "viability, T/C", "setting": "[39]", "result": 77, "unit": "%"}, {"measurement": "viability, T/C", "setting": "[40]", "result": 73.1, "unit": "%"}, {"measurement": "viability, T/C", "setting": "[41]", "result": 78.1, "unit": "%"}, {"measurement": "viability, T/C", "setting": "[42]", "result": 75, "unit": "%"}]}, {"molecule": "Cn1cnc2c(F)c(Nc3ccc(Br)cc3Cl)c(C(=O)NOCCO)cc21", "values": [{"measurement": "viability, T/C", "setting": "compound 0.00949 µM", "result": "92.8% [middle of 4 runs]"}, {"measurement": "viability, T/C", "setting": "compound 0.03 µM", "result": "89.9% [middle of 4 runs]"}, {"measurement": "viability, T/C", "setting": "compound 0.0949 µM", "result": "93.2% [middle of 4 runs]"}, {"measurement": "viability, T/C", "setting": "compound 0.3 µM", "result": "83% [middle of 4 runs]"}, {"measurement": "viability, T/C", "setting": "compound 0.949 µM", "result": "52.5% [middle of 4 runs]"}, {"measurement": "viability, T/C", "setting": "compound 3 µM", "result": "22% [middle of 4 runs]"}, {"measurement": "IC50", "setting": "curve of compound", "result": "1.07 µM [middle of 4 runs]"}]}]}
